Measured values reported in ChEMBL document CHEMBL3352227, “Synthesis, antimycobacterial and antibacterial evaluation of l-[(1R, 2S)-2-fluorocyclopropyl]fluoroquinolone derivatives containing an oxime functional moiety” (Eur J Med Chem, 2014).
≈ marks a conversion by molar mass, not a printed value.

Key:
Assay type in all cases: functional
[1] = system: Staphylococcus aureus; experiment: Antibacterial activity against methicillin-sensitive Staphylococcus aureus 12-2 after 18 to 24 hrs by standard twofold serial dilution method
[2] = system: Escherichia coli; experiment: Antibacterial activity against Escherichia coli 12-1 after 18 to 24 hrs by standard twofold serial dilution method
[3] = system: Staphylococcus epidermidis; experiment: Antibacterial activity against methicillin-resistant Staphylococcus epidermidis 12-6 after 18 to 24 hrs by standard twofold serial dilution method
[4] = system: Escherichia coli; experiment: Antibacterial activity against Escherichia coli ATCC 25922 after 18 to 24 hrs by standard twofold serial dilution method
[5] = system: Staphylococcus epidermidis; experiment: Antibacterial activity against methicillin-sensitive Staphylococcus epidermidis 12-3 after 18 to 24 hrs by standard twofold serial dilution method
[6] = system: Streptococcus pneumoniae; experiment: Antibacterial activity against Streptococcus pneumoniae ATCC 49619 after 18 to 24 hrs by standard twofold serial dilution method
[7] = system: Streptococcus pneumoniae; experiment: Antibacterial activity against Streptococcus pneumoniae 12-18 after 18 to 24 hrs by standard twofold serial dilution method
[8] = system: Pseudomonas aeruginosa; experiment: Antibacterial activity against Pseudomonas aeruginosa 12-14 after 18 to 24 hrs by standard twofold serial dilution method
[9] = system: Escherichia coli; experiment: Antibacterial activity against extended-spectrum beta-lactamase producing Escherichia coli 12-2 after 18 to 24 hrs by standard twofold serial dilution method
[10] = system: Klebsiella pneumoniae; experiment: Antibacterial activity against extended-spectrum beta-lactamase producin Klebsiella pneumoniae 12-7 after 18 to 24 hrs by standard twofold serial dilution method
[11] = system: Pseudomonas aeruginosa; experiment: Antibacterial activity against Pseudomonas aeruginosa 12-12 after 18 to 24 hrs by standard twofold serial dilution method
[12] = system: Escherichia coli; experiment: Antibacterial activity against extended-spectrum beta-lactamase producing Escherichia coli 12-14 after 18 to 24 hrs by standard twofold serial dilution method
[13] = system: Escherichia coli; experiment: Antibacterial activity against extended-spectrum beta-lactamase producing Escherichia coli 12-3 after 18 to 24 hrs by standard twofold serial dilution method
[14] = system: Staphylococcus aureus; experiment: Antibacterial activity against methicillin-sensitive Staphylococcus aureus 12-5 after 18 to 24 hrs by standard twofold serial dilution method
[15] = system: Staphylococcus epidermidis; experiment: Antibacterial activity against methicillin-sensitive Staphylococcus epidermidis 12-1 after 18 to 24 hrs by standard twofold serial dilution method
[16] = system: Klebsiella pneumoniae; experiment: Antibacterial activity against Klebsiella pneumoniae 12-1 after 18 to 24 hrs by standard twofold serial dilution method
[17] = system: Klebsiella pneumoniae; experiment: Antibacterial activity against extended-spectrum beta-lactamase producin Klebsiella pneumoniae 12-3 after 18 to 24 hrs by standard twofold serial dilution method
[18] = system: Staphylococcus epidermidis; experiment: Antibacterial activity against methicillin-sensitive Staphylococcus epidermidis 12-8 after 18 to 24 hrs by standard twofold serial dilution method
[19] = system: Staphylococcus epidermidis; experiment: Antibacterial activity against methicillin-sensitive Staphylococcus epidermidis 12-6 after 18 to 24 hrs by standard twofold serial dilution method
[20] = system: Klebsiella pneumoniae; experiment: Antibacterial activity against extended-spectrum beta-lactamase producin Klebsiella pneumoniae 12-4 after 18 to 24 hrs by standard twofold serial dilution method
[21] = system: Mycobacterium tuberculosis; experiment: Antimycobacterial activity against Mycobacterium tuberculosis H37Rv ATCC 27294 by MABA method
[22] = system: Staphylococcus epidermidis; experiment: Antibacterial activity against methicillin-resistant Staphylococcus epidermidis 12-1 after 18 to 24 hrs by standard twofold serial dilution method
[23] = system: Staphylococcus aureus; experiment: Antibacterial activity against methicillin-sensitive Staphylococcus aureus 12-1 after 18 to 24 hrs by standard twofold serial dilution method
[24] = system: Staphylococcus aureus; experiment: Antibacterial activity against Staphylococcus aureus ATCC 25923 after 18 to 24 hrs by standard twofold serial dilution method
[25] = system: Klebsiella pneumoniae; experiment: Antibacterial activity against extended-spectrum beta-lactamase producin Klebsiella pneumoniae 12-14 after 18 to 24 hrs by standard twofold serial dilution method
[26] = system: Klebsiella pneumoniae; experiment: Antibacterial activity against Klebsiella pneumoniae 12-4 after 18 to 24 hrs by standard twofold serial dilution method
[27] = system: Escherichia coli; experiment: Antibacterial activity against extended-spectrum beta-lactamase producing Escherichia coli 12-15 after 18 to 24 hrs by standard twofold serial dilution method
[28] = system: Staphylococcus aureus; experiment: Antibacterial activity against methicillin-resistant Staphylococcus aureus 12-2 after 18 to 24 hrs by standard twofold serial dilution method
[29] = system: Staphylococcus aureus; experiment: Antibacterial activity against methicillin-sensitive Staphylococcus aureus 12-4 after 18 to 24 hrs by standard twofold serial dilution method
[30] = system: Klebsiella pneumoniae; experiment: Antibacterial activity against Klebsiella pneumoniae 12-2 after 18 to 24 hrs by standard twofold serial dilution method
[31] = system: Staphylococcus aureus; experiment: Antibacterial activity against methicillin-resistant Staphylococcus aureus 12-5 after 18 to 24 hrs by standard twofold serial dilution method
[32] = system: Staphylococcus aureus; experiment: Antibacterial activity against methicillin-resistant Staphylococcus aureus 12-4 after 18 to 24 hrs by standard twofold serial dilution method

Row | Structure (SMILES) | MIC [1] [µg/mL] | MIC [2] [µg/mL] | MIC [3] [µg/mL] | MIC [4] [µg/mL] | MIC [5] [µg/mL] | MIC [6] [µg/mL] | MIC [7] [µg/mL] | MIC [8] [µg/mL] | MIC [9] [µg/mL] | MIC [10] [µg/mL] | MIC [11] [µg/mL] | MIC [12] [µg/mL] | MIC [13] [µg/mL] | MIC [14] [µg/mL] | MIC [15] [µg/mL] | MIC [16] [µg/mL] | MIC [17] [µg/mL] | MIC [18] [µg/mL] | MIC [19] [µg/mL] | MIC [20] [µg/mL] | further results
1 | CO/N=C1/CN(c2nc3c(cc2F)c(=O)c(C(=O)O)cn3[C@@H]2C[C@@H]2F)CC1CN (stereo partly specified) | 0.125 (≈ 0.307 µM) | 0.5 (≈ 1.23 µM) | 4 (≈ 9.82 µM) | 0.06 (≈ 0.147 µM) | 0.5 (≈ 1.23 µM) | 0.125 (≈ 0.307 µM) | 0.25 (≈ 0.614 µM) | 8 (≈ 19.6 µM) | 128 (≈ 314 µM) | 2 (≈ 4.91 µM) | 0.5 (≈ 1.23 µM) | 64 (≈ 157 µM) | 32 (≈ 78.6 µM) | 0.125 (≈ 0.307 µM) | 0.125 (≈ 0.307 µM) | 0.25 (≈ 0.614 µM) | 32 (≈ 78.6 µM) | 1 (≈ 2.45 µM) | 0.125 (≈ 0.307 µM) | 0.5 (≈ 1.23 µM) | MIC [21]: 0.5 µg/mL (≈ 1.23 µM); MIC [22]: 4 µg/mL (≈ 9.82 µM); MIC [23]: 0.125 µg/mL (≈ 0.307 µM); MIC [24]: 0.015 µg/mL (≈ 0.0368 µM); MIC [25]: 64 µg/mL (≈ 157 µM); MIC [26]: 0.25 µg/mL (≈ 0.614 µM); MIC [27]: > 128 µg/mL; MIC [28]: 16 µg/mL (≈ 39.3 µM); MIC [29]: 0.06 µg/mL (≈ 0.147 µM); MIC [30]: 0.25 µg/mL (≈ 0.614 µM); MIC [31]: 16 µg/mL (≈ 39.3 µM); MIC [32]: 32 µg/mL (≈ 78.6 µM)
2 | CCO/N=C1/CN(c2c(F)cc3c(=O)c(C(=O)O)cn([C@@H]4C[C@@H]4F)c3c2OC)CC1CN (stereo partly specified) | 0.25 (≈ 0.555 µM) | 16 (≈ 35.5 µM) | > 128 | 4 (≈ 8.88 µM) | 2 (≈ 4.44 µM) | 4 (≈ 8.88 µM) | 4 (≈ 8.88 µM) | 128 (≈ 284 µM) | > 128 | 32 (≈ 71 µM) | 8 (≈ 17.8 µM) | > 128 | > 128 | 0.25 (≈ 0.555 µM) | 0.25 (≈ 0.555 µM) | 4 (≈ 8.88 µM) | > 128 | 16 (≈ 35.5 µM) | 0.25 (≈ 0.555 µM) | 128 (≈ 284 µM) | MIC [21]: 32 µg/mL (≈ 71 µM); MIC [22]: 32 µg/mL (≈ 71 µM); MIC [23]: 0.25 µg/mL (≈ 0.555 µM); MIC [24]: 0.015 µg/mL (≈ 0.0333 µM); MIC [25]: > 128 µg/mL; MIC [26]: 4 µg/mL (≈ 8.88 µM); MIC [27]: > 128 µg/mL; MIC [28]: 128 µg/mL (≈ 284 µM); MIC [29]: 0.25 µg/mL (≈ 0.555 µM); MIC [30]: 4 µg/mL (≈ 8.88 µM); MIC [31]: 64 µg/mL (≈ 142 µM); MIC [32]: 128 µg/mL (≈ 284 µM)
3 | NC[C@@H]1/C(=N\OCc2ccccc2)CN1c1cc2c(cc1F)c(=O)c(C(=O)O)cn2[C@@H]1C[C@@H]1F | 1 (≈ 2.13 µM) | 8 (≈ 17.1 µM) | 8 (≈ 17.1 µM) | 0.25 (≈ 0.534 µM) | 2 (≈ 4.27 µM) | 0.5 (≈ 1.07 µM) | 8 (≈ 17.1 µM) | 32 (≈ 68.3 µM) | > 128 | 2 (≈ 4.27 µM) | 2 (≈ 4.27 µM) | 128 (≈ 273 µM) | 16 (≈ 34.2 µM) | 1 (≈ 2.13 µM) | 1 (≈ 2.13 µM) | 0.5 (≈ 1.07 µM) | 128 (≈ 273 µM) | 2 (≈ 4.27 µM) | 1 (≈ 2.13 µM) | 16 (≈ 34.2 µM) | MIC [21]: 8 µg/mL (≈ 17.1 µM); MIC [22]: 32 µg/mL (≈ 68.3 µM); MIC [23]: 1 µg/mL (≈ 2.13 µM); MIC [24]: 0.25 µg/mL (≈ 0.534 µM); MIC [25]: 128 µg/mL (≈ 273 µM); MIC [26]: 0.5 µg/mL (≈ 1.07 µM); MIC [27]: > 128 µg/mL; MIC [28]: > 128 µg/mL; MIC [29]: 1 µg/mL (≈ 2.13 µM); MIC [30]: 0.5 µg/mL (≈ 1.07 µM); MIC [31]: 128 µg/mL (≈ 273 µM); MIC [32]: > 128 µg/mL
